This is an account of results in patent publication US11976057B2, “MrgX2 antagonists” (GlaxoSmithKline Intellectual Property Development Limited, priority 2020, dated 2024).

Each structure is given as a SMILES string. Bounds are passed on as bounds.

What is called IC50 is the midpoint of a concentration-inhibition curve. The low end stands for inhibition by little substance, the high end for a need for much substance.

For this test, the target named is T1, human MRGPRX2 (Homo sapiens, UniProt Q96LB1).
T1 sequence (Q96LB1 1-330): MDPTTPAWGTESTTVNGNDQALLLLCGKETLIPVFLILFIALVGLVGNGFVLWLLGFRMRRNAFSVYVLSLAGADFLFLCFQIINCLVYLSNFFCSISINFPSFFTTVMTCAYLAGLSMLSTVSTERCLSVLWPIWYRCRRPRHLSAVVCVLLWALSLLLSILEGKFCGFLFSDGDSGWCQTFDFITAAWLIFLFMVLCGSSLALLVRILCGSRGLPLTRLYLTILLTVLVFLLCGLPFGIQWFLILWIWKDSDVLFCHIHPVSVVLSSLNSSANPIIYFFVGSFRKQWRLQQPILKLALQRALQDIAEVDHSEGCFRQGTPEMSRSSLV
Nature of the test: Ca2+ mobilization assay (FLIPR TETRA): inhibition of Cortistatin-14 mediated MRGPRX2 activation. A general note: Calcium flux is commonly read through the fluorescence of an indicator in the cells.
The compound `CC(C(=O)Nc1ccc(Oc2ccccc2C#N)nn1)N1CCC(F)(F)[C@@H](c2ccc(=O)[nH]c2)C1` (stereo partly drawn) [Example 62, N-(6-(2-cyanophenoxy)pyridazin-3-yl)-2-((S)-4,4-difluoro-3-(6-oxo-1,6-dihydropyridin-3-yl)piperidin-1-yl)propanamide] yielded an IC50 of 3160 to 31600 nM.
Next, `C[C@@H](C(=O)Nc1ccc(OCC2CC2)cn1)N1CCC(F)(F)[C@@H](c2c[nH]c(=O)cn2)C1` [Example 133, (S)—N-(5-(cyclopropylmethoxy)pyridin-2-yl)-2-((R)-4,4-difluoro-3-(5-oxo-4,5-dihydropyrazin-2-yl)piperidin-1-yl)propanamide]: at most 10 nM; `C[C@@H](C(=O)Nc1ccc(C2CC2)cn1)N1CCC(F)(F)[C@@H](c2c[nH]c(=O)cn2)C1` [Example 137, (S)-N-(5-cyclopropylpyridin-2-yl)-2-((R)-4,4-difluoro-3-(5-oxo-4,5-dihydropyrazin-2-yl)piperidin-1-yl)propanamide]: 100 to 3160 nM; `C[C@@H](C(=O)Nc1ccc(Cl)cn1)N1CCC[C@@H](c2c[nH]c(=O)c(-c3ccccc3)c2)C1` (single isomer, unassigned) [Example 178]: 100 to 3160 nM.
The compound `CC(C(=O)Nc1ccc(Oc2ccc(F)cc2)cn1)N1CCC(F)(F)C(c2c[nH]c(=O)c(CN3CCOCC3)c2)C1` (centres unmarked) [Example 226, 2-(4,4-difluoro-3-(5-(morpholinomethyl)-6-oxo-1,6-dihydropyridin-3-yl)piperidin-1-yl)-N-(5-(4-fluorophenoxy)pyridin-2-yl)propanamide] yielded an IC50 of 10 to 100 nM.
For the compound `C[C@@H](C(=O)Nc1ccc(Oc2ccc(F)cc2)cn1)N1CCC(F)(F)[C@@H](c2c[nH]c(=O)c(CO)c2)C1` [Example 156], the IC50 is at most 10 nM.
Next, `CC(=O)NCc1cc(C2CN(C(C)C(=O)Nc3ccc(F)cn3)CCC2(F)F)cc[n+]1[O-]` (centres unmarked) [Example 263]: 100 to 3160 nM; `C[C@@H](C(=O)Nc1ccc(Cl)cn1)N1CCC(F)(F)[C@@H](c2ccc(=O)[nH]c2)C1` [Example 81, (S)-N-(5-chloropyridin-2-yl)-2-((S)-4,4-difluoro-3-(6-oxo-1,6-dihydropyridin-3-yl)piperidin-1-yl)propanamide]: 100 to 3160 nM.
Take `C[C@H]1C[C@@H](c2ccc(=O)[nH]c2)CN([C@@H](C)C(=O)Nc2ccc(Cl)cn2)C1` [Example 172]: the IC50 fell in the range of 100 to 3160 nM.
With `C[C@@H](C(=O)Nc1ccc(Oc2ccc(F)cc2F)cn1)N1CCC(F)(F)[C@@H](c2c[nH]c(=O)c(CNCC(F)(F)F)c2)C1` [Example 242, (S)-2-((S)-4,4-difluoro-3-(6-oxo-5-(((2,2,2-trifluoroethyl)amino)methyl)-1,6-dihydropyridin-3-yl)piperidin-1-yl)-N-(5-(2,4-difluorophenoxy)pyridin-2-yl)propanamide], the IC50 is at most 10 nM.
For the compound `C[C@@H](C(=O)Nc1ccc(F)cn1)N1CCC(F)(F)[C@@H](c2ccc(=O)[nH]c2)C1` [Example 79, (S)-2-((S)-4,4-difluoro-3-(6-oxo-1,6-dihydropyridin-3-yl)piperidin-1-yl)-N-(5-fluoropyridin-2-yl)propanamide], the IC50 is 10 to 100 nM.
Next, `CC(C(=O)Nc1ccc(Oc2ccccc2)cn1)N1CCC(F)(F)C(c2cc[n+]([O-])cc2)C1` (centres unmarked) [Example 110]: at most 10 nM; `C[C@@H](C(=O)Nc1ccc(Oc2ccc(F)cc2CO)cn1)N1CCC(F)(F)[C@@H](c2cc[n+]([O-])cc2)C1` [Example 273, 4-((S)-4,4-difluoro-1-((S)-1-((5-(4-fluoro-2-(hydroxymethyl)phenoxy)pyridin-2-yl)amino)-1-oxopropan-2-yl)piperidin-3-yl)pyridine 1-oxide]: 10 to 100 nM.
`CC(C(=O)Nc1ncc(Oc2ccc(F)cc2)cc1F)N1CCC(F)(F)[C@@H](c2ccc(=O)[nH]c2)C1` (stereo partly drawn) [Example 86, 2-((S)-4,4-difluoro-3-(6-oxo-1,6-dihydropyridin-3-yl)piperidin-1-yl)-N-(3-fluoro-5-(4-fluorophenoxy)pyridin-2-yl)propanamide] gave an IC50 of 10 to 100 nM.
`C[C@@H](C(=O)Nc1ccc(Oc2ccc(F)cc2)cn1)N1CCC(F)(F)C(c2c[nH]c(=O)c(C(O)C(F)(F)F)c2)C1` (stereo partly drawn) [Example 211, (2S)-2-(4,4-difluoro-3-(6-oxo-5-(2,2,2-trifluoro-1-hydroxyethyl)-1,6-dihydropyridin-3-yl)piperidin-10-yl)-N-(5-(4-fluorophenoxy)pyridin-2-yl)propanamide] registered an IC50 of at most 10 nM.
For the compound `C[C@@H](C(=O)Nc1ccc(OCC2CC2)cn1)N1CCC[C@@H](c2c[nH]c(=O)cc2C(F)(F)F)C1` (single isomer, unassigned) [Example 169], the IC50 lay in the range of 100 to 3160 nM.
`C[C@@H](C(=O)Nc1ccc(Cl)cn1)N1CCC[C@@H](c2c[nH]c(=O)c(C3CC3)c2)C1` (single isomer, unassigned) [Example 179]: the IC50 is 100 to 3160 nM.
In turn, `C[C@@H](C(=O)Nc1ccc(Oc2ccc(F)cc2F)cn1)N1CCC(F)(F)C(c2c[nH]c(=O)c(C(O)C(F)(F)F)c2)C1` (stereo partly drawn) [Example 212, (2S)-2-(4,4-difluoro-3-(6-oxo-5-(2,2,2-trifluoro-1-hydroxyethyl)-1,6-dihydropyridin-3-yl)piperidin-1-yl)-N-(5-(2,4-difluorophenoxy)pyridin-2-yl)propanamide] registered an IC50 of at most 10 nM.
`C[C@@H](C(=O)Nc1ccc(OCC(C)(C)C)nn1)N1CCC(F)(F)[C@@H](c2ccc(=O)[nH]c2)C1` [Example 89, (S)-2-((S)-4,4-difluoro-3-(6-oxo-1,6-dihydropyridin-3-yl)piperidin-1-yl)-N-(6-(neopenlyloxy)pyridazin-3-yl)propanamide] returned an IC50 of 100 to 3160 nM.
`CC(C(=O)Nc1cnc(Oc2ccc(F)cc2F)cn1)N1CCC(F)(F)C(c2cc[n+]([O-])c(C(N)=O)c2)C1` (centres unmarked) [Example 260, 2-carbamoyl-4-(1-(1-((5-(2,4-difluorophenoxy)pyrazin-2-yl)amino)-1-oxopropan-2-yl)-4,4-difluoropiperidin-3-yl)pyridine 1-oxide] displayed an IC50 of at most 10 nM.
The same measure for `C[C@@H](C(=O)Nc1ccc(F)cn1)N1CCC(F)(F)[C@@H](c2c[nH]c(=O)c(CN)c2)C1` (single isomer, unassigned) [Example 201]: 100 to 3160 nM; for `C[C@@H](C(=O)Nc1ccc(Oc2ccc(F)cc2)cn1)N1CCC(F)(F)[C@@H](c2c[nH]c(=O)c([C@H](N)C(F)(F)F)c2)C1` (single isomer, unassigned) [Example 233]: at most 10 nM; for `C[C@@H](C(=O)Nc1ccc(C(F)(F)c2ccc(F)cc2)cn1)N1CCC(F)(F)[C@@H](c2ccc(=O)[nH]c2)C1` [Example 102, (S)-N-(5-(difluoro(4-fluorophenyl)methyl)pyridin-2-yl)-2-((S)-4,4-difluoro-3-(6-oxo-1,6-dihydropyridin-3-yl)piperidin-1-yl)propanamide]: 10 to 100 nM.
Regarding `C[C@@H](C(=O)Nc1ccc(Cc2ccccc2)cn1)N1CCC(F)(F)[C@@H](c2ccc(=O)[nH]c2)C1` [Example 7, (S)-N-(5-benzylpyridin-2-yl)-2-((S)-4,4-difluoro-3-(6-oxo-1,6-dihydropyridin-3-yl)piperidin-1-yl)propanamide], the IC50 was at most 10 nM.
Next, `C[C@@H](C(=O)Nc1ccc(OCC2CC2)nn1)N1CCC(F)(F)[C@@H](c2c[nH]c(=O)c(CN(C)C)c2)C1` [Example 231]: 100 to 3160 nM; `CC(C(=O)Nc1ccc(Oc2ccncc2)cn1)N1CCC(F)(F)[C@@H](c2ccc(=O)[nH]c2)C1` (stereo partly drawn) [Example 64, 2-((S)-4,4-difluoro-3-(6-oxo-1,6-dihydropyridin-3-yl)piperidin-1-yl)-N-(5-(pyridin-4-yloxy)pyridin-2-yl)propanamide]: 100 to 3160 nM; `C[C@@H](C(=O)Nc1ccc(Oc2ccncn2)cn1)N1CCC(F)(F)[C@@H](c2ccc(=O)[nH]c2)C1` [Example 74, (S)-2-((S)-4,4-difluoro-3-(6-oxo-1,6-dihydropyridin-3-yl)piperidin-1-yl)-N-(5-(pyrimidin-4-yloxy)pyridin-2-yl)propanamide]: 100 to 3160 nM.
Compound `C[C@@H](C(=O)Nc1ccc(F)cn1)N1CCC(F)(F)[C@@H](c2ccc(=O)n(CC(F)(F)F)c2)C1` [Example 3, (S)-2-((S)-4,4-difluoro-3-(6-oxo-1-(2,2,2-trifluoroethyl)-1,6-dihydropyridin-3-yl)piperidin-1-yl)-N-(5-fluoropyridin-2-yl)propanamide] yielded an IC50 of at most 10 nM.
In the case of `C[C@@H](C(=O)Nc1ccc(Cc2ccccc2)nn1)N1CCC(F)(F)[C@@H](c2ccc(=O)[nH]c2)C1` [Example 12, (S)-N-(6-benzylpyridazin-3-yl)-2-((S)-4,4-difluoro-3-(6-oxo-1,6-dihydropyridin-3-yl)piperidin-1-yl)propanamide], the IC50 is 10 to 100 nM.
`C[C@@H](C(=O)Nc1ccc(C2CCC2)cn1)N1CCC(F)(F)[C@@H](c2ccc(=O)[nH]c2)C1` [Example 18, (S)-N-(5-cyclobutylpyridin-2-yl)-2-((S)-4,4-difluoro-3-(6-oxo-1,6-dihydropyridin-3-yl)piperidin-1-yl)propanamide] returned an IC50 of 100 to 3160 nM.
As to `C[C@@H](C(=O)Nc1ccc(OCC2CC2)cn1)[C@H]1CCC(F)(F)[C@@H](c2ccc(=O)[nH]c2)C1` (single isomer, unassigned) [Example 275], the IC50 was at most 10 nM.
`C[C@@H](C(=O)Nc1cc(F)c(OCC2CC2)cn1)N1CCC(F)(F)[C@@H](c2ccc(=O)[nH]c2)C1` [Example 76, (S)-N-(5-(cyclopropyl-methoxy)-4-fluoropyridin-2-yl)-2-((S)-4,4-difluoro-3-(6-oxo-1,6-dihydropyridin-3-yl)piperidin-1-yl)propanamide] registered an IC50 of 10 to 100 nM.
